Results: patent EP0285287A2, “3-Benzazepine compounds for use in treating gastrointestinal motility disorders” (SMITHKLINE BECKMAN CORPORATION, priority 1987, dated 1988)
Where two headings read alike, the source gives them in different places.

Tested on: lower esophageal sphincter (LES)
Test: Determination of LES pressure in the anesthetized dog
Assay type: in vivo, dogs
Conditions: Canis lupus familiaris, mean ED20 = dose which increases LES pressure 20 mm Hg (N>=3)
Description: Methods for Determination of LES Pressure in the Anesthetized Dog
Mongrel or beagle dogs, male and female, are anesthetized using sodium pentobarbital (35.0 mg/kg., i.v.). Sodium pentobarbital is then continuously infused (approximately 6.0 mg/kg/hr) to maintain deep anesthesia. Blood pressure is monitored via a catheter surgically implanted into the femoral artery and attached to a Gould-Statham P23ID transducer. A catheter is also implanted into the femoral vein to administer test drugs. Respiration is maintained by an endotracheal tube attached to a respirator. A continuously perfused manometric catheter system including a Dent sleeve to measure sphincter pressure (Dent, Gastroenterology 71:263-267, 1976) is inserted into the esophagus and positioned so that intraluminal pressure is recorded from the body of the esophagus, the lower esophageal sphincter (LES) and the fundus of the stomach. The Dent sleeve catheter is perfused at a rate of 0.5 ml of water per minute for each lumen of the catheter by using an Arndorfer Hydraulic Capillary Infusion System. A cannula is implanted into the gastric antrum to allow drainage of the perfusate solution and prevent intestinal distension. Continuous tracings of esophageal, LES and fundus pressure are monitored on a Grass Polygraph (Model 7D). Correct positioning of the Dent sleeve is verified by noting a high pressure zone at the LES and by administration of an intravenous dose of 5-HT (usually 10-15 mcg/kg) which contracts the LES while having little or no recordable effect on either the body of the esophagus or the fundus. After verification of placement of the sleeve, the animal is allowed to stabilize for approximately 30 minutes.
Compounds are administered intravenously or intraduodenally. In most cases, succeeding doses of the same or different compounds are given only after the LES pressure has returned to approximate pre-dosing baseline values. In all cases, the magnitude of change in LES pressure is determined from the baseline pressure immediately prior to each treatment to the maximum pressure during treatment. Since the compounds used usually produce an immediate effect on LES pressure, no pretreatment time prior to measurement is necessary during this testing.
Direct assay techniques are used to estimate an Effective Dose 20 (ED₂₀) for the test compound in individual animals. The mean ED₂₀ and 95% confidence limits are determined using the individual ED₂₀ values from a group of animals (N= ≧3) that received the same treatment. The ED₂₀ is the dose which increases LES pressure 20 mm Hg.

[1] = intraduodenal, read-out: ED20 in mcg/kg i.d.
[2] = intravenous, read-out: ED20 in mcg/kg i.v.

SMILES: CN1CCc2ccc(O)c(Sc3ccccc3)c2CC1 [Compound 1, 7-hydroxy-3-methyl-6-phenylthio-2,3 4,5-tetrahydro-1H-3-benzazepine]
- ED (20 mm Hg) [1]: 263 µg/kg
- ED (20 mm Hg) [2]: 63 µg/kg

SMILES: CN1CCc2cc(O)c(Sc3ccccc3)cc2CC1 [Compound 2, 8-hydroxy-3-methyl-7-phenylthio-2,3 4,5-tetrahydro-1H-3-benzazepine]
- ED (20 mm Hg) [1]: ~1000 µg/kg
- ED (20 mm Hg) [2]: 14 µg/kg

SMILES: CSc1ccc2c(c1)CCN(C)CC2 [Compound 3, 3-methyl-7-methylthio-2,3,4,5-tetra-hydro-1H-3-benzazepine]
- ED (20 mm Hg) [1]: 236 µg/kg
- ED (20 mm Hg) [2]: 273 µg/kg

SMILES: Oc1ccc2c(c1)CCNCC2 [Compound 4, 7-hydroxy-2,3,4,5-tetrahydro-1H-3-benzazepine]
- ED (20 mm Hg) [2]: 348 µg/kg

SMILES: CN1CCc2cc(Sc3ccccc3)c([N+](=O)[O-])cc2CC1 [Compound 5, 3-methyl-7-nitro-8-phenylthio-2,3,4,5-tetrahydro-1H-3-benzazepine]
- ED (20 mm Hg) [2]: 1200 µg/kg
